Test results as given in patent US8859559B2, “Substituted pyrazines and their use in the treatment of disease” (Boehringer Ingelheim International GmbH, priority 2011, dated 2014).

Target: T1, ENaC (Epithelial Sodium Channel) (Mus musculus, UniProt Q61180+Q9WU38+Q9WU39)
T1 construct: Mouse kidney M-1 cells were cultivated in DMEM; endogenous in cells; host or cells: Mouse kidney M-1 cells (dexamethasone-treated, on transwell filters)
T1 sequence (Q61180 1-699): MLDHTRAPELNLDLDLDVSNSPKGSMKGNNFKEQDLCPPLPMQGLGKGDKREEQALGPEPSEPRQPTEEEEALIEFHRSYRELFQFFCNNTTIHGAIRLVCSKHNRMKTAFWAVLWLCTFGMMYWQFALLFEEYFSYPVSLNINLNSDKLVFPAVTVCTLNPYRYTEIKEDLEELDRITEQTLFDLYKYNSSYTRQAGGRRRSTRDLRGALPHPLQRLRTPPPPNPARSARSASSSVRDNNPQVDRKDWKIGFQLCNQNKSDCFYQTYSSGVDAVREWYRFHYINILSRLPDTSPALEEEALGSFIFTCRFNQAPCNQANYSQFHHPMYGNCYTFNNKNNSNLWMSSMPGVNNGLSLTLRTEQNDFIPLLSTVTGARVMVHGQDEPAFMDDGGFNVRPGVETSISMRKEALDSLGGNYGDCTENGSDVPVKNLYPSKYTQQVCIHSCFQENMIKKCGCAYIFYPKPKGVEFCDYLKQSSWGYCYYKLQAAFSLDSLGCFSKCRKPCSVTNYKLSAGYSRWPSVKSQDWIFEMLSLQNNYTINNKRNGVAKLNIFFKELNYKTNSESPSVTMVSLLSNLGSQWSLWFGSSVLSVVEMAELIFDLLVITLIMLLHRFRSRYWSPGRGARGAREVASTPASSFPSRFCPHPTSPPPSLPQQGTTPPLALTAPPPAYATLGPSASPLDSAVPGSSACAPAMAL
T1 sequence (Q9WU38 1-638): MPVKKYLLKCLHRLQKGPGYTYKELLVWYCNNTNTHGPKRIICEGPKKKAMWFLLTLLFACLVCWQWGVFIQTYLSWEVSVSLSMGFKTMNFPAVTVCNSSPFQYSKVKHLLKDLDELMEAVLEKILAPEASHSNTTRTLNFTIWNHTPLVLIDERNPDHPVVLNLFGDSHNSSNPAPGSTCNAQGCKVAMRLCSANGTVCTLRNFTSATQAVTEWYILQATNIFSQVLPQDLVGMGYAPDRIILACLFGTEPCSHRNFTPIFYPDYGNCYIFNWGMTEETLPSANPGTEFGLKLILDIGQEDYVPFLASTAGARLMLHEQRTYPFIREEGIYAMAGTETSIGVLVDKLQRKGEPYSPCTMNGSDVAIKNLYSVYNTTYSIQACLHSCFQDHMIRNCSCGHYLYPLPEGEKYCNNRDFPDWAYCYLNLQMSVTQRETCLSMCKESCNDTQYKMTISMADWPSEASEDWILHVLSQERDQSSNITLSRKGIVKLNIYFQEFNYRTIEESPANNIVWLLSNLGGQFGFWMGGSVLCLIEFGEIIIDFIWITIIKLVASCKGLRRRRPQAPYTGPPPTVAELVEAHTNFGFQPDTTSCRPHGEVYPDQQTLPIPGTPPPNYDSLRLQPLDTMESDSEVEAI
T1 sequence (Q9WU39 1-655): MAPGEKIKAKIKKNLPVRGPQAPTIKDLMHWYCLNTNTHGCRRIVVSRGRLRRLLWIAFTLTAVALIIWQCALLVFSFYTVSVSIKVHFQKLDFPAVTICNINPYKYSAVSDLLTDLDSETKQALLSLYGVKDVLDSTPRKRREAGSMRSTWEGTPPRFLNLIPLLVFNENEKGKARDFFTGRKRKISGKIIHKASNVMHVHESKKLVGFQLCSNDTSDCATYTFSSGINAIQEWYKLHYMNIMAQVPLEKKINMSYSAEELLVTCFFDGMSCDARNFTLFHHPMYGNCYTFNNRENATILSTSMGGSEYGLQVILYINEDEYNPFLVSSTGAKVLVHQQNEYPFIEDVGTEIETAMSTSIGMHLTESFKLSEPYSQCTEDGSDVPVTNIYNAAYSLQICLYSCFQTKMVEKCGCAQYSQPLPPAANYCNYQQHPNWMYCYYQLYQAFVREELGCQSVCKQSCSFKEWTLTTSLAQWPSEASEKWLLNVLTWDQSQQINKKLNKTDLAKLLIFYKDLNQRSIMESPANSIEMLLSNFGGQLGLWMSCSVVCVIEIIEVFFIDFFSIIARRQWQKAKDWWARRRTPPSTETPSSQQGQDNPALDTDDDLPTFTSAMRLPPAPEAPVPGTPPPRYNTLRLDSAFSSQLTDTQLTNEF
Assay: Ussing chamber: inhibition of amiloride sensitive short circuit current (I_sc) in M-1 cells
Format: cell-based
Settings: mouse kidney M-1 cells
Experimental: Mouse kidney M-1 cells were cultivated in DMEM containing 5% FCS and 5 μM dexamethasone for 10 to 12 days on polyester transwell filters. Filters were inserted into a teflon-coated well-plate which fit into the in-house ussing chamber system. Prior to measurement the medium of M-1 cells was replaced with Caco-2 transport buffer (Invitrogen, Germany). During measurements, the Ussing chamber temperature was kept at 37° C. Short circuit currents (I_sc) were measured in the voltage-clamp mode using an in-house built amplifier (Boehringer Ingelheim, Biberach) with the software package Lab View for data acquisition and analysis. The transepithelial electrical resistance (TEER) was determined by the application of voltage steps of ±5 mV every 5 sec. Compounds were administered at a final concentration of 3 μM or at increasing concentrations (1-3-10 μM) to the apical solution. At the end of each experiment the amiloride sensitive I_SC was measured by adding 3 μM amiloride to the apical compartment. Results are expressed as inhibition in percent of the amiloride effect or as IC50. With the example compounds given above, the following IC50 values were determined in the Ussing Chamber assay: […]

Compound | IC50
[N-]=[N+]=NCCOCCOCCOCCN(CCOCCOCCO)C(=O)c1ccc(=O)n(Cc2ccc(CN3CCC(NC(N)=NC(=O)c4nc(Cl)c(N)nc4N)CC3)cc2)c1 [Example 1.56] | 24 nM
COC(=O)Cc1ccc(CN2CCC(NC(N)=NC(=O)c3nc(Cl)c(N)nc3N)CC2)cc1 [Example 1.38] | 8 nM
NC(=NC(=O)c1nc(Cl)c(N)nc1N)NC1CC2CCC(C1)N2Cc1ccccc1 (single isomer, unassigned) [Example 1.28] | 16 nM
N/C(=N\C(=O)c1nc(Cl)c(N)nc1N)NC1CCN(Cc2ccc(C(=O)NCCCS(=O)(=O)O)cc2)CC1 [Example 2.1] | 12 nM
NC(=NC(=O)c1nc(Cl)c(N)nc1N)NC1CCN(Cc2ccc(OCc3cn(CCOCCOCCOCCNC(=O)c4cc(OCCOCCOCCO)cc(OCCOCCOCCO)c4)nn3)cc2)CC1 [Example 5.8] | 52 nM
CN(Cc1cn(CCc2ccc(CN3CCC(NC(N)=NC(=O)c4nc(Cl)c(N)nc4N)CC3)cc2)nn1)C(=O)CCNCCOCCOCCOCCO [Example 5.2] | 14 nM
NC(=NC(=O)c1nc(Cl)c(N)nc1N)NC1CCCN(Cc2ccccc2)CC1 (centres unmarked) [Example 1.22] | 14 nM
NC(=NC(=O)c1nc(Cl)c(N)nc1N)NC1CCN(Cc2ccc(CCn3cc(COCCO)nn3)cc2)CC1 [Example 3.2] | 10 nM
COC(=O)c1ccc(CN2CCC(C)(NC(N)=NC(=O)c3nc(Cl)c(N)nc3N)CC2)cc1 [Example 1.17] | 66 nM
NC(=NC(=O)c1nc(Cl)c(N)nc1N)NC1CCN(Cc2cccc(CC(=O)O)c2)CC1 [Example 8.10] | 24 nM
NC(=NC(=O)c1nc(Cl)c(N)nc1N)N[C@H]1CCN(Cc2ccc(OCC(=O)O)cc2)C1 [Example 8.16] | 31 nM
NC(=NC(=O)c1nc(Cl)c(N)nc1N)NC1CCN(Cc2ccc(-c3cn(CCOCCOCCOCCO)nn3)cc2)CC1 [Example 3.26] | 8 nM
NC(=NC(=O)c1nc(Cl)c(N)nc1N)NC1CCN(Cc2cccc(OCC(=O)O)c2)CC1 [Example 8.15] | 37 nM
COC(=O)C(c1ccccc1)N1CCC(NC(N)=NC(=O)c2nc(Cl)c(N)nc2N)CC1 (centres unmarked) [Example 1.37] | 17 nM
N/C(=N\C(=O)c1nc(Cl)c(N)nc1N)NC1CCN(Cc2ccc(CP(=O)(O)O)cc2)CC1 [Example 7.1] | 477 nM
COC(=O)COc1ccc(CN2CCC(NC(N)=NC(=O)c3nc(Cl)c(N)nc3N)CC2)cc1OCC(=O)OC [Example 1.53] | 7 nM
CCOP(=O)(OCC)c1ccc(CN2CCC(NC(N)=NC(=O)c3nc(Cl)c(N)nc3N)CC2)cc1 [Example 1.13] | 5 nM
CCOP(=O)(Cc1ccc(CN2CCC(NC(N)=NC(=O)c3nc(Cl)c(N)nc3N)CC2)cc1)OCC [Example 1.8] | 10 nM
NC(=NC(=O)c1nc(Cl)c(N)nc1N)NC1CCN(Cc2ccc(-n3cc(C(=O)O)ccc3=O)cc2)CC1 [Example 8.4] | 210 nM
NC(=NC(=O)c1nc(Cl)c(N)nc1N)NC1CCN(Cc2ccc(OCc3cn(CCOCCOCCOCCO)nn3)cc2)CC1 [Example 3.21] | 12 nM
CC(=O)Oc1ccc(CN2CCC(N/C(N)=N/C(=O)c3nc(Cl)c(N)nc3N)CC2)cc1 [Example 1.41] | 7 nM
NC(=NC(=O)c1nc(Cl)c(N)nc1N)NC1CCN(Cc2ccc(C(=O)NCCS(=O)(=O)O)cc2)CC1 [Example 2.4] | 35 nM
NC(=NC(=O)c1nc(Cl)c(N)nc1N)NC1CCN(Cc2cccc(-c3cn(CCOCCOCCOCCNC(=O)c4cc(OCCOCCOCCOCCO)cc(OCCOCCOCCOCCO)c4)nn3)c2)CC1 [Example 5.12] | 62 nM
COC(=O)COc1ccc(CN2CCC(N/C(N)=N/C(=O)c3nc(Br)c(N)nc3N)CC2)cc1 [Example 1.68] | 11 nM
N/C(=N\C(=O)c1nc(Cl)c(N)nc1N)NC1CCN(Cc2ccc(C(=O)O)cc2)CC1 [Example 1.51] | 23 nM
NCc1ccc(CN2CCC(N/C(N)=N/C(=O)c3nc(Cl)c(N)nc3N)CC2)cc1 [Example 9.1] | 7 nM
NC(=NC(=O)c1nc(Cl)c(N)nc1N)NC1CCN(Cc2ccc(-c3cn(CCOCCOCCOCCNC(=O)c4cc(OCCOCCOCCOCCO)cc(OCCOCCOCCOCCO)c4)nn3)cc2)CC1 [Example 5.5] | 109 nM

Continued, values first:

IC50 | Compound
3 nM | NCCOCCOCCNC(=O)c1ccc(CN2CCC(NC(N)=NC(=O)c3nc(Cl)c(N)nc3N)CC2)cc1 [Example 1.47]
7 nM | NC(=NC(=O)c1nc(Cl)c(N)nc1N)NC1CCN(Cc2cccc(-c3cn(CCOCCOCCOCCNCCOCCOCCO)nn3)c2)CC1 [Example 5.11]
6 nM | NC(=NC(=O)c1nc(Cl)c(N)nc1N)NC1CCN(Cc2ccc(-c3cn(CCOCCOCCOC(c4ccccc4)(c4ccccc4)c4ccccc4)nn3)cc2)CC1 [Example 3.28]
5 nM | CN(Cc1cn(-c2ccc(CN3CCC(NC(N)=NC(=O)c4nc(Cl)c(N)nc4N)CC3)cc2)nn1)C(=O)CCNC(=O)OC(C)(C)C [Example 3.18]
7 nM | COCCOc1ccc(CCc2ccc(CN3CCC(NC(N)=NC(=O)c4nc(Cl)c(N)nc4N)CC3)cc2)nn1 [Example 1.58]
7 nM | C#Cc1cccc(CN2CCC(NC(N)=NC(=O)c3nc(Cl)c(N)nc3N)CC2)c1 [Example 1.32]
6 nM | NC(=NC(=O)c1nc(Cl)c(N)nc1N)NC1CCN(Cc2ccc(-n3cc(COC[B-](F)(F)F)nn3)cc2)CC1 [Example 3.14]
5 nM | NC(=NC(=O)c1nc(Cl)c(N)nc1N)NC1CCN(Cc2ccc(-n3cc(CCC(=O)N(CCO)CCO)nn3)cc2)CC1 [Example 3.12]
4 nM | [N-]=[N+]=NCCOCCOCCOCCNC(=O)c1ccc(CN2CCC(NC(N)=NC(=O)c3nc(Cl)c(N)nc3N)CC2)cc1 [Example 1.7]
1 nM | CN(C)CCNC(=O)c1ccc(CN2CCC(NC(N)=NC(=O)c3nc(Cl)c(N)nc3N)CC2)cc1 [Example 1.14]
1 nM | CC[N+](CC)(CC)Cc1ccc(CCn2cc(-c3cccc(CN4CCC(NC(N)=NC(=O)c5nc(Cl)c(N)nc5N)CC4)c3)nn2)cc1 [Example 3.38]
1 nM | NC(=NC(=O)c1nc(Cl)c(N)nc1N)NC1CCN(Cc2ccc(-c3cn(CCOCCOCCOCCOCCOCCO)nn3)cc2)CC1 [Example 3.27]
5 nM | C#Cc1ccc(CN2CCC(NC(N)=NC(=O)c3nc(Cl)c(N)nc3N)CC2)cc1 [Example 1.50]
3 nM | COC(=O)c1cccc(CN2CCC(NC(N)=NC(=O)c3nc(Cl)c(N)nc3N)CC2)c1 [Example 1.36]
